In patent US8716303B2, “N-(hetero)aryl-pyrrolidine derivatives of pyrazol-4-yl-pyrrolo[2,3-d]pyrimidines and pyrrol-3-yl-pyrrolo[2,3-d]pyrimidines as janus kinase inhibitors” (Incyte Corporation, priority 2009, dated 2014):

Tests used:
[1] = target: T1, human JAK1 (a.a. 837-1142) (Homo sapiens, UniProt P23458); assay: In vitro JAK kinase assay (HTRF, phosphorylation of a biotinylated peptide), JAK1; type: biochemical
T1 construct: human JAK1 (a.a. 837-1142); His tag (N); made in house; host or cells: insect cells (baculovirus)
T1 sequence (P23458 849-1154): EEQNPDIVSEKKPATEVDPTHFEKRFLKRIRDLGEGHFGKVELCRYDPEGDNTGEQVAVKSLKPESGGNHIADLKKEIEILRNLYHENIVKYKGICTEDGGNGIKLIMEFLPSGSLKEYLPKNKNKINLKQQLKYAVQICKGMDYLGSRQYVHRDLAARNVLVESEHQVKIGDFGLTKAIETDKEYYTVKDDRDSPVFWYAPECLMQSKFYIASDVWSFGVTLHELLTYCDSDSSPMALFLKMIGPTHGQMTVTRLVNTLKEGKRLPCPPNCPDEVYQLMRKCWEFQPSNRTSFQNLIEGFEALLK
Description: (§1) Compounds herein were tested for inhibitory activity of JAK targets according to the following in vitro assay described in Park et al., Analytical Biochemistry 1999, 269, 94-104. The catalytic domains of human JAK1 (a.a. 837-1142), Jak2 (a.a. 828-1132) and Jak3 (a.a. 781-1124) with an N-terminal His tag were expressed using baculovirus in insect cells and purified. The catalytic activity of JAK1, JAK2 or JAK3 was assayed by measuring the phosphorylation of a biotinylated peptide. The phosphorylated peptide was detected by homogenous time resolved fluorescence (HTRF). IC50s of compounds were measured for each kinase in the 40 microL reactions that contain the enzyme, ATP and 500 nM peptide in 50 mM Tris (pH 7.8) buffer with 100 mM NaCl, 5 mM DTT, and 0.1 mg/mL (0.01%) BSA. The ATP concentration in the reactions was 90 μM for Jak1, 30 μM for Jak2 and 3 μM for Jak3 for Km conditions. For the 1 mM IC50 measurements, ATP concentration in the reactions was 1 mM. Reactions were carried out at RT for 1 h and then stopped with 20 μL 45 mM EDTA, 300 nM SA-APC, 6 nM Eu-Py20 in assay buffer (Perkin Elmer, Boston, Mass.). Binding to the Europium labeled antibody took place for 40 min and HTRF signal was measured on a Fusion plate reader (Perkin Elmer, Boston, Mass.).
(§2) Compounds herein were tested for inhibitory activity of JAK1 and JAK2 targets according to the assay of Example A (experiments run at Km or 1 mM as indicated). The symbol “+” indicates an IC50<50 nM; the symbol “++” indicates an IC50≧50 and ≦100 nM; and the symbol “+++” indicates an IC50>100 and ≦500 nM.

Jak2 (a.a. 828-1132) = target: T2, Jak2 (a.a. 828-1132) (Homo sapiens, UniProt O60674); assay: In vitro JAK kinase assay (HTRF, phosphorylation of a biotinylated peptide), JAK2, reported as JAK2/JAK1 ratio; type: biochemical
T2 construct: Jak2 (a.a. 828-1132); His tag (N); made in house; host or cells: insect cells (baculovirus)
T2 sequence (O60674 828-1132): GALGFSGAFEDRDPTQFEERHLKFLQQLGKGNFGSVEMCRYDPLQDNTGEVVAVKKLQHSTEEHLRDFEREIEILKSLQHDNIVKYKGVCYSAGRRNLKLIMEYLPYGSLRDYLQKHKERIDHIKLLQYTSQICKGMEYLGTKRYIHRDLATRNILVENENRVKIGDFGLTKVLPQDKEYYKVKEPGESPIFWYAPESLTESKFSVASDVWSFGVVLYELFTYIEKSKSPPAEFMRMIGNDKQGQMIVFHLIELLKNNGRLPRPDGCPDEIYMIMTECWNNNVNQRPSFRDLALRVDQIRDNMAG
Description: as §1, §2

[2] = Assay Conditions Km (ATP 90 μM for Jak1)
[3] = Assay Conditions Km (ATP 90 μM for Jak1, 30 μM for Jak2)

Row | IC50 [1, 2] [nM] | JAK2/JAK1 IC50 ratio (Jak2 (a.a. 828-1132); [3]) | IC50 ([1]; Assay Conditions 1 mM ATP) [nM] | JAK2/JAK1 IC50 ratio (Jak2 (a.a. 828-1132); Assay Conditions 1 mM ATP) | SMILES
1 | < 50 | 2.1 | – | – | N#CCC(C1CCN(c2nc3cccnc3o2)C1)n1cc(-c2ncnc3[nH]ccc23)cn1 (single isomer, unassigned) [Example 13b, 3-(1-[1,3]oxazolo[5,4-b]pyridin-2-ylpyrrolidin-3-yl)-3-[4-(7H-pyrrolo[2,3-d]pyrimidin-4-yl)-1H-pyrazol-1-yl]propanenitrile]
2 | < 50 | 4 | – | – | Cc1cnc2oc(N3CCC(C(CC#N)n4cc(-c5ncnc6[nH]ccc56)cn4)C3)nc2c1 (single isomer, unassigned) [Example 14, 3-[1-(6-methyl[1,3]oxazolo[5,4-b]pyridin-2-yl)pyrrolidin-3-yl]-3-[4-(7H-pyrrolo[2,3-d]pyrimidin-4-yl)-1H-pyrazol-1-yl]propanenitrile]
3 | < 50 | 6.8 | – | – | N#CCC(C1CCN(c2nc3cc(F)cnc3o2)C1)n1cc(-c2ncnc3[nH]ccc23)cn1 (single isomer, unassigned) [Example 15, 3-[1-(6-fluoro[1,3]oxazolo[5,4-b]pyridin-2-yl)pyrrolidin-3-yl]-3-[4-(7H-pyrrolo[2,3-d]pyrimidin-4-yl)-1H-pyrazol-1-yl]propanenitrile]
4 | – | – | < 50 | 11.4 | N#CCC(C1CCN(c2ncc3cc[nH]c3n2)C1)n1cc(-c2ncnc3[nH]ccc23)cn1 (single isomer, unassigned) [Example 16, 3-[4-(7H-pyrrolo[2,3-d]pyrimidin-4-yl)-1H-pyrazol-1-yl]-3-[1-(7H-pyrrolo[2,3-d]pyrimidin-2-yl)pyrrolidin-3-yl]propanenitrile]
5 | – | – | 100 to 500 | 8 | Cn1ccc2cnc(N3CCC(C(CC#N)n4cc(-c5ncnc6[nH]ccc56)cn4)C3)nc21 (single isomer, unassigned) [Example 17, 3-[1-(7-methyl-7H-pyrrolo[2,3-d]pyrimidin-2-yl)pyrrolidin-3-yl]-3-[4-(7H-pyrrolo[2,3-d]pyrimidin-4-yl)-1H-pyrazol-1-yl]propanenitrile]
6 | – | – | 50 to 100 | 10.3 | N#CCC(C1CCN(c2nc3cncnc3o2)C1)n1cc(-c2ncnc3[nH]ccc23)cn1 (single isomer, unassigned) [Example 18, 3-(1-[1,3]oxazolo[5,4-d]pyrimidin-2-ylpyrrolidin-3-yl)-3-[4-(7H-pyrrolo[2,3-d]pyrimidin-4-yl)-1H-pyrazol-1-yl]propanenitrile]
7 | – | – | < 50 | 5.3 | N#CCC(C1CCN(c2nc3cc(F)ccc3o2)C1)n1cc(-c2ncnc3[nH]ccc23)cn1 (single isomer, unassigned) [Example 19, 3-[1-(5-fluoro-1,3-benzoxazol-2-yl)pyrrolidin-3-yl]-3-[4-(7H-pyrrolo[2,3-d]pyrimidin-4-yl)-1H-pyrazol-1-yl]propanenitrile]
8 | – | – | < 50 | 10.4 | N#CCC(C1CCN(c2nc3c(F)cccc3o2)C1)n1cc(-c2ncnc3[nH]ccc23)cn1 (single isomer, unassigned) [Example 20, 3-[1-(4-fluoro-1,3-benzoxazol-2-yl)pyrrolidin-3-yl]-3-[4-(7H-pyrrolo[2,3-d]pyrimidin-4-yl)-1H-pyrazol-1-yl]propanenitrile]
9 | – | – | < 50 | 31.8 | N#CCC(C1CCN(c2nc3cccc(F)c3o2)C1)n1cc(-c2ncnc3[nH]ccc23)cn1 (single isomer, unassigned) [Example 21, 3-[1-(7-fluoro-1,3-benzoxazol-2-yl)pyrrolidin-3-yl]-3-[4-(7H-pyrrolo[2,3-d]pyrimidin-4-yl)-1H-pyrazol-1-yl]propanenitrile]
10 | – | – | < 50 | >7 | N#CCC(C1CCN(c2nc3cc(F)cc(F)c3o2)C1)n1cc(-c2ncnc3[nH]ccc23)cn1 (single isomer, unassigned) [Example 22, 3-[1-(5,7-difluoro-1,3-benzoxazol-2-yl)pyrrolidin-3-yl]-3-[4-(7H-pyrrolo[2,3-d]pyrimidin-4-yl)-1H-pyrazol-1-yl]propanenitrile]
11 | – | – | < 50 | 2.3 | CSc1nccc(N2CCC(C(CC#N)n3cc(-c4ncnc5[nH]ccc45)cn3)C2)n1 (single isomer, unassigned) [Example 23, 3-{1-[2-(methylthio)pyrimidin-4-yl]pyrrolidin-3-yl}-3-[4-(7H-pyrrolo[2,3-d]pyrimidin-4-yl)-1H-pyrazol-1-yl]propanenitrile]
12 | – | – | < 50 | 2.5 | C[S+]([O-])c1nccc(N2CCC(C(CC#N)n3cc(-c4ncnc5[nH]ccc45)cn3)C2)n1 (single isomer, unassigned) [Example 24, 3-{1-[2-(methylsulfinyl)pyrimidin-4-yl]pyrrolidin-3-yl}-3-[4-(7H-pyrrolo[2,3-d]pyrimidin-4-yl)-1H-pyrazol-1-yl]propanenitrile]
13 | – | – | < 50 | 34 | CS(=O)(=O)c1nccc(N2CCC(C(CC#N)n3cc(-c4ncnc5[nH]ccc45)cn3)C2)n1 (single isomer, unassigned) [Example 25, 3-{1-[2-(methylsulfonyl)pyrimidin-4-yl]pyrrolidin-3-yl}-3-[4-(7H-pyrrolo[2,3-d]pyrimidin-4-yl)-1H-pyrazol-1-yl]propanenitrile]
14 | – | – | 50 to 100 | 5.2 | CS(=O)(=O)c1cccc(N2CCC(C(CC#N)n3cc(-c4ncnc5[nH]ccc45)cn3)C2)n1 (single isomer, unassigned) [Example 26, 3-{1-[6-(methylsulfonyl)pyridin-2-yl]pyrrolidin-3-yl}-3-[4-(7H-pyrrolo[2,3-d]pyrimidin-4-yl)-1H-pyrazol-1-yl]propanenitrile]
15 | – | – | < 50 | 14 | CS(=O)(=O)c1cc(N2CCC(C(CC#N)n3cc(-c4ncnc5[nH]ccc45)cn3)C2)ccn1 (single isomer, unassigned) [Example 27, 3-{1-[2-(methylsulfonyl)pyridin-4-yl]pyrrolidin-3-yl}-3-[4-(7H-pyrrolo[2,3-d]pyrimidin-4-yl)-1H-pyrazol-1-yl]propanenitrile]
16 | – | – | < 50 | 4 | N#CCC(C1CCN(c2ccc3c(n2)[S+]([O-])CC3)C1)n1cc(-c2ncnc3[nH]ccc23)cn1 (single isomer, unassigned) [Example 28, 3-[1-(1-oxido-2,3-dihydrothieno[2,3-b]pyridin-6-yl)pyrrolidin-3-yl]-3-[4-(7H-pyrrolo[2,3-d]pyrimidin-4-yl)-1H-pyrazol-1-yl]propanenitrile]
17 | – | – | < 50 | 12 | N#CCC(C1CCN(c2ccc3c(n2)SCC3)C1)n1cc(-c2ncnc3[nH]ccc23)cn1 (single isomer, unassigned) [Example 29, 3-[1-(2,3-dihydrothieno[2,3-b]pyridin-6-yl)pyrrolidin-3-yl]-3-[4-(7H-pyrrolo[2,3-d]pyrimidin-4-yl)-1H-pyrazol-1-yl]propanenitrile]
18 | – | – | < 50 | 14.5 | N#CCC(C1CCN(c2ccc3c(n2)S(=O)(=O)CC3)C1)n1cc(-c2ncnc3[nH]ccc23)cn1 (single isomer, unassigned) [Example 30, 3-[1-(1,1-dioxido-2,3-dihydrothieno[2,3-b]pyridin-6-yl)pyrrolidin-3-yl]-3-[4-(7H-pyrrolo[2,3-d]pyrimidin-4-yl)-1H-pyrazol-1-yl]propanenitrile]
19 | – | – | < 50 | 34 | N#CCC(C1CCN(c2nc3cccnc3o2)C1)n1ccc(-c2ncnc3[nH]ccc23)c1 (single isomer, unassigned) [Example 33, 3-(1-[1,3]oxazolo[5,4-b]pyridin-2-ylpyrrolidin-3-yl)-3-[3-(7H-pyrrolo[2,3-d]pyrimidin-4-yl)-1H-pyrrol-1-yl]propanenitrile phosphate]
20 | < 50 | 7.4 | – | – | N#CCC(C1CCN(c2cccc(Cl)[n+]2[O-])C1)n1cc(-c2ncnc3[nH]ccc23)cn1 (single isomer, unassigned) [Example 45, 3-[1-(6-chloro-1-oxidopyridin-2-yl)pyrrolidin-3-yl]-3-[4-(7H-pyrrolo[2,3-d]pyrimidin-4-yl)-1H-pyrazol-1-yl]propanenitrile]
21 | – | – | < 50 | 6.0 | N#Cc1nnccc1N1CC[C@H](C(CF)n2cc(-c3ncnc4[nH]ccc34)cn2)C1 (single isomer, unassigned) [Example 116]
22 | – | – | < 50 | 3.2 | N#CCC(C1CCN(c2ccnc(S)n2)C1)n1cc(-c2ncnc3[nH]ccc23)cn1 (single isomer, unassigned) [Example 150, 3-[1-(2-mercaptopyrimidin-4-yl)pyrrolidin-3-yl]-3-[4-(7H-pyrrolo[2,3-d]pyrimidin-4-yl)-1H-pyrazol-1-yl]propanenitrile]
